Data set [1] deals with MCF7 Cell line (Breast Cancer). Nature of the data set: NCI three cell-line test. Conditions: 1(10^−4) Molar in growth medium, percent of growth of untreated control cells. The data set is classed as cell-based, human. The protocol:
(§1) The testing in this Example was performed by NCI, as per their 3-cell line panel test. The results are reported as the percent of the growth of the treated cells compared to the untreated control cells. The criterion for being an effective compound and for being subjected to further testing is that the tested compound reduce the growth of any one of the three cell lines to approximately 32% or less.
(§2) The methods for conducting the test are described below in Example 3, except that the cells were exposed to a single concentration of MT103, at 1×10^−4 Molar, and colorimetric determinations were made with alamar blue (Biotechniques 21(5):780-782 (1996)).
(§3) Methodology: The NCI conducted a test of the MT103 drug against 60 human cell lines, with a minimum of five concentrations of MT103 at 10-fold dilutions. A 48 hour continuous drug exposure was used, and a sulforhodamine B (SRB) protein assay was used to estimate cell viability and growth. The human tumor cell lines of the cancer screening panel were grown in RPMI 1640 medium containing 5% fetal bovine serum and 2 mM L-glutamine. Cells were inoculated into 96 well microtiter plates in 100 μL at plating densities ranging from 5,000 to 40,000 cells/well depending on the doubling time of individual cell lines. After cell inoculation, the microtiter plates are incubated at 37° C., 5% CO2, 95% air, and 100% relative humidity for 24 h prior to addition of experimental drugs. […]
(§4) Following drug addition, the plates were incubated for an additional 48 h at 37° C., 5% CO2, 95% air, and 100% relative humidity. […] Bound stain was subsequently solubilized with 10 mM trizma base, and the absorbance was read on an automated plate reader at a wavelength of 515 nm. […] Using the seven absorbance measurements (time zero, (Tz), control growth, (C), and test growth in the presence of drug at the five concentration levels (Ti)), the percentage growth was calculated at each of the drug concentrations levels. Percentage growth inhibition was calculated as: […]

For data set [2], the system named is NCI-H460 Cell Line (Non-Small cell Lung). Nature of the data set: NCI three cell-line test. The data set is classed as cell-based, human. The following applies: 1(10^−4) Molar in growth medium, percent of growth of untreated control cells. On the procedure:
as §1, §2, §3, §4

In data set [3] the test system is SF-268 Cell Line (Central Nervous System). Nature of the data set: NCI three cell-line test. The data set is classed as cell-based, human. Conditions: 1(10^−4) Molar in growth medium, percent of growth of untreated control cells. On the procedure: as §1, §2, §3, §4
The next data set deals with MCF7, NCI-H460, SF-268. Kind of data set: NCI three cell-line test, all three cell lines. The data set is classed as cell-based, human. The following applies: one concentration tested (1×10^−4 Molar). On the procedure:
as §1, §2
Methodology: The NCI conducted a test of the MT103 drug against 60 human cell lines, with a minimum of five concentrations of MT103 at 10-fold dilutions. […]
as §4

The subject of data set [4] is NCI-H226 human non-small cell lung cancer cell line. Kind of data set: MTS assay. The data set is classed as cell-based. On the procedure: Methods The MTS assay was employed in the evaluation of these compounds. The cells were harvested, centrifuged to remove the medium, and suspended in fresh complete medium. Samples were taken to determine cell density. The cell count was determined with a Coulter Model Z cell counter and viability was measured with propidium iodine staining call by analysis on Coulter EPICS flow cytometer. The cell line was plated at 5×10^3 cells per well in complete medium. On the following day, the cells were closed with the dilutions of the compound. The plates were analyzed on Day for after initiation of treatment.
The cell line was propagated using standard tissue culture procedures and seeded in microtiter plates prior to dosing. Control groups included a mock treatment, media control, and a positive control (doxorubicin, 1 μM). For each concentration level, eight replicates were treated. The cell line was propagated under sterile conditions at 37° C. in 5% CO2 and 95% humidity. MT103 was stored at 4° C. until dissolved and diluted in complete medium.
Anti-cellular effects of the compound were assessed with the MTS dye conversion assay. MTS was purchased as a single solution, and stored at −20° C. […] The absorbance of formazan in each monolayer was measured at 490 nm on a Coulter microplate reader at four hours after addition of the MTS.

The test system of another data set is H226 cell cancer tumors. Nature of the data set: Induced-tumor NOD/SCID mouse model (Example 7). The data set is classed as in vivo, NOD/SCID mice. Conditions: 30 mg/kg intraperitoneal every other day for two weeks. The protocol:
(§5) A standard induced-tumor NOD/SCID mouse model was used to perform this investigation, with the mouse model being based on protocols for human xenograft systems developed at the National Cancer Institute. H226 cell cancer tumors were induced in NOD/SCID mice; tumors at sizes approximately 100 mm^3 were treated with 30 mg/kg MT103 or a control containing only vehicle (2.5% DMSO in distilled water) administered in intraperitoneal injections every other day for two weeks.

Data set [5] concerns NCI-H226 squamous carcinoma. Kind of data set: Induced-tumor NOD/SCID mouse model, comparison to cisplatin (Example 8). It is filed as in vivo, NOD/SCID mice. On the procedure:
as §5
This experiment provides in vivo test data showing that the MT103 family of compounds are effective anti-cancer agents. […] MT103 was tested at three dose levels (60, 120, and 240 mg/kg). Experiments were performed as described in Example 7, NOD/SCID mice, (NOD.CB17-Prkdcscid/J) except that tumors were treated with: one of three doses of MT103 or Cisplatin or sham for 3 intraperitoneal injections (one every 4 days) in a 2-cycle 56-day test that was extended to another cycle to 86 days, as reflected in FIG. 5. Tumor volumes were measured every other day.

By GI50 is commonly meant the concentration that inhibits growth by half. Low values mean more potent growth inhibition, high ones less potent growth inhibition.

`CC1(C)C2CC[C@@]1(CS(=O)(=O)N(C1CCCCC1)C1CCCCC1)C(O)C2` (some centres unmarked) [MT103]: the figures for the “Growth, Percentage” value in data set [1], in data set [2] and in data set [3] were 0%, 16% and 14%, respectively. In addition, the “growth of all three cell lines” value with MCF7, NCI-H460, SF-268 is recorded as at most 16%. Further, in data set [4], the GI50 was 66 µM. In addition, the toxicity result in the data set on H226 cell cancer tumors is given as “without any evidence of toxicity”. Further, the tumor volume result in the data set on H226 cell cancer tumors (FIG. 3) is listed as “tumor volume was significantly decreased”. Also, the mice body weight result with H226 cell cancer tumors (FIG. 4) is recorded as “did not have deleterious effect on mice body weight”. Moreover, the H226 tumor progression result in the data set with H226 cell cancer tumors (p=0.038) was “slowed down H226 tumor progression significantly”. Further, in data set [5] (120 mg/kg versus control), the “blood counts and electrolytes” value is “no differences in blood counts and electrolytes”. Further, in data set [5] (120 mg/kg versus control), the organ appearance entry was “no observable differences in organ appearance”. Besides, the “improvement compared to cisplatin” value in data set [5] (120 mg/kg, among the range of doses tested) was “most improvement compared to cisplatin”. Moreover, in data set [5] (60, 120, 240 mg/kg, 3 intraperitoneal injections (one every 4 days) per cycle, p=0.046, FIG. 5), the mean tumor growth entry is “mean tumor growth slowed”. The “effect in comparison to cisplatin” value in data set [5] (depending upon the dosages administered (60, 120, 240 mg/kg)) was “comparable or superior effect”.

(Values after patent US20040266732A1, “Therapeutic agents, methods, and treatments” (priority 2002, published 2004).)
